# How the values were obtained:
# [1] = test system: patients with a history of myocardial infarction; test: PEGASUS-TIMI 54 analysis by time from P2Y12 inhibitor withdrawal to randomization; details: for All-cause mortality, HR / Cor. heart dis. death, HR / Fatal bleeding, HR / Intracranial bleeding, HR / Myocardial infarction, HR / Stroke, HR / TIMI Major Bleeding, HR / TIMI Major or Minor Bleeding, HR / All-cause mortality, (%) / Cor. heart dis. death, (%) / Fatal bleeding, (%) / Intracranial bleeding, (%) / Myocardial infarction, (%) / Stroke, (%) / TIMI Major Bleeding, (%) / TIMI Major or Minor Bleeding, (%): at 3 years
# Description: Patients in PEGASUS-TIMI 54 were further categorized by time from last P2Y12 inhibitor (days: ≤30 days, 31-360, >360).
# thromboxane B2 = details: either ticagrelor group
# [2] = 60 mg and 90 mg pooled, between 31 days and one year following withdrawal
# [3] = 60 mg and 90 mg pooled, within 30 days following withdrawal of dual antiplatelet therapy
# [4] = >1 year from P2Y12 inhibitor withdrawal, ticagrelor 60 mg bid vs. placebo
# [5] = >1 year from P2Y12 inhibitor withdrawal, ticagrelor 60 mg bid
# [6] = >1 year from P2Y12 inhibitor withdrawal, ticagrelor 90 mg bid vs. placebo
# [7] = >1 year from P2Y12 inhibitor withdrawal, ticagrelor 90 mg bid
# [8] = >1 year from P2Y12 inhibitor withdrawal, ticagrelor pooled vs. placebo
# [9] = >1 year from P2Y12 inhibitor withdrawal, ticagrelor pooled
# [10] = >30 days to ≤1 year from P2Y12 inhibitor withdrawal, ticagrelor 60 mg bid vs. placebo
# [11] = >30 days to ≤1 year from P2Y12 inhibitor withdrawal, ticagrelor 60 mg bid
# [12] = >30 days to ≤1 year from P2Y12 inhibitor withdrawal, ticagrelor 90 mg bid vs. placebo
# [13] = >30 days to ≤1 year from P2Y12 inhibitor withdrawal, ticagrelor 90 mg bid
# [14] = >30 days to ≤1 year from P2Y12 inhibitor withdrawal, ticagrelor pooled vs. placebo
# [15] = >30 days to ≤1 year from P2Y12 inhibitor withdrawal, ticagrelor pooled
# [16] = pooled doses, withdrawal within 30 days
# [17] = ≤30 days from P2Y12 inhibitor withdrawal, ticagrelor 60 mg bid vs. placebo
# [18] = ≤30 days from P2Y12 inhibitor withdrawal, ticagrelor 60 mg bid
# [19] = ≤30 days from P2Y12 inhibitor withdrawal, ticagrelor 90 mg bid vs. placebo
# [20] = ≤30 days from P2Y12 inhibitor withdrawal, ticagrelor 90 mg bid
# [21] = ≤30 days from P2Y12 inhibitor withdrawal, ticagrelor pooled vs. placebo
# [22] = ≤30 days from P2Y12 inhibitor withdrawal, ticagrelor pooled
smiles,measurement,setting,value
"CCCSc1nc(N[C@@H]2C[C@H]2c2ccc(F)c(F)c2)c2nnn([C@@H]3C[C@H](OCCO)[C@@H](O)[C@H]3O)c2n1 [Ticagrelor, (1S,2S,3R,5S)-3-[7-{[(1R,2S)-2-(3,4-difluorophenyl)cyclopropyl]amino}-5-(propylthio)-3H-[1,2,3]-triazolo[4,5-d]pyrimidin-3-yl]-5-(2-hydroxyethoxy)cyclopentane-1,2-diol]",absolute reduction in the risk of a subsequent atherothrombotic event,[1]; [2],1.1%
same,reduction in the risk of developing a subsequent atherothrombotic event,[1]; [2],14%
same,absolute reduction in the risk of a subsequent atherothrombotic event,[1]; [3],2.2%
same,reduction in the risk of developing a subsequent atherothrombotic event,[1]; [3],27%
same,"All-cause mortality, HR",[1]; [4],1.34
same,"Cor. heart dis. death, HR",[1]; [4],0.96
same,"Fatal bleeding, HR",[1]; [4],1.11
same,"Intracranial bleeding, HR",[1]; [4],1.56
same,"Myocardial infarction, HR",[1]; [4],0.95
same,"Stroke, HR",[1]; [4],0.95
same,"TIMI Major Bleeding, HR",[1]; [4],2.1
same,"TIMI Major or Minor Bleeding, HR",[1]; [4],2.11
same,"All-cause mortality, (%)",[1]; [5],(4.6) %
same,"Cor. heart dis. death, (%)",[1]; [5],(1.2) %
same,"Fatal bleeding, (%)",[1]; [5],(0.1) %
same,"Intracranial bleeding, (%)",[1]; [5],(0.6) %
same,"Myocardial infarction, (%)",[1]; [5],(4.1) %
same,"Stroke, (%)",[1]; [5],(1.2) %
same,"TIMI Major Bleeding, (%)",[1]; [5],(1.9) %
same,"TIMI Major or Minor Bleeding, (%)",[1]; [5],(2.3) %
same,"All-cause mortality, HR",[1]; [6],1.31
same,"Cor. heart dis. death, HR",[1]; [6],0.77
same,"Intracranial bleeding, HR",[1]; [6],1.42
same,"Myocardial infarction, HR",[1]; [6],0.84
same,"Stroke, HR",[1]; [6],1.13
same,"TIMI Major Bleeding, HR",[1]; [6],3.28
same,"TIMI Major or Minor Bleeding, HR",[1]; [6],3.82
same,"All-cause mortality, (%)",[1]; [7],(4.7) %
same,"Cor. heart dis. death, (%)",[1]; [7],(1.1) %
same,"Fatal bleeding, (%)",[1]; [7],(0) %
same,"Intracranial bleeding, (%)",[1]; [7],(0.5) %
same,"Myocardial infarction, (%)",[1]; [7],(3.6) %
same,"Stroke, (%)",[1]; [7],(1.5) %
same,"TIMI Major Bleeding, (%)",[1]; [7],(3) %
same,"TIMI Major or Minor Bleeding, (%)",[1]; [7],(4.4) %
same,"All-cause mortality, HR",[1]; [8],1.32
same,"Cor. heart dis. death, HR",[1]; [8],0.86
same,"Fatal bleeding, HR",[1]; [8],0.57
same,"Intracranial bleeding, HR",[1]; [8],1.48
same,"Myocardial infarction, HR",[1]; [8],0.9
same,"Stroke, HR",[1]; [8],1.04
same,"TIMI Major Bleeding, HR",[1]; [8],2.67
same,"TIMI Major or Minor Bleeding, HR",[1]; [8],2.94
same,"All-cause mortality, (%)",[1]; [9],(4.6) %
same,"Cor. heart dis. death, (%)",[1]; [9],(1.2) %
same,"Fatal bleeding, (%)",[1]; [9],(0) %
same,"Intracranial bleeding, (%)",[1]; [9],(0.6) %
same,"Myocardial infarction, (%)",[1]; [9],(3.9) %
same,"Stroke, (%)",[1]; [9],(1.3) %
same,"TIMI Major Bleeding, (%)",[1]; [9],(2.4) %
same,"TIMI Major or Minor Bleeding, (%)",[1]; [9],(3.5) %
same,"All-cause mortality, HR",[1]; [10],0.76
same,"Cor. heart dis. death, HR",[1]; [10],0.70
same,"Fatal bleeding, HR",[1]; [10],0.87
same,"Intracranial bleeding, HR",[1]; [10],1.97
same,"Myocardial infarction, HR",[1]; [10],0.88
same,"Stroke, HR",[1]; [10],0.82
same,"TIMI Major Bleeding, HR",[1]; [10],2.94
same,"TIMI Major or Minor Bleeding, HR",[1]; [10],3.07
same,"All-cause mortality, (%)",[1]; [11],(3.8) %
same,"Cor. heart dis. death, (%)",[1]; [11],(1.4) %
same,"Fatal bleeding, (%)",[1]; [11],(0.3) %
same,"Intracranial bleeding, (%)",[1]; [11],(0.6) %
same,"Myocardial infarction, (%)",[1]; [11],(4.6) %
same,"Stroke, (%)",[1]; [11],(1.4) %
same,"TIMI Major Bleeding, (%)",[1]; [11],(2.7) %
same,"TIMI Major or Minor Bleeding, (%)",[1]; [11],(3.8) %
same,"All-cause mortality, HR",[1]; [12],1.01
same,"Cor. heart dis. death, HR",[1]; [12],0.71
same,"Fatal bleeding, HR",[1]; [12],0.24
same,"Intracranial bleeding, HR",[1]; [12],1.63
same,"Myocardial infarction, HR",[1]; [12],0.82
same,"Stroke, HR",[1]; [12],1.02
same,"TIMI Major Bleeding, HR",[1]; [12],2.85
same,"TIMI Major or Minor Bleeding, HR",[1]; [12],3.17
same,"All-cause mortality, (%)",[1]; [13],(4.8) %
same,"Cor. heart dis. death, (%)",[1]; [13],(1.4) %
same,"Fatal bleeding, (%)",[1]; [13],(0.1) %
same,"Intracranial bleeding, (%)",[1]; [13],(0.5) %
same,"Myocardial infarction, (%)",[1]; [13],(4.2) %
same,"Stroke, (%)",[1]; [13],(1.9) %
same,"TIMI Major Bleeding, (%)",[1]; [13],(2.8) %
same,"TIMI Major or Minor Bleeding, (%)",[1]; [13],(3.9) %
same,"All-cause mortality, HR",[1]; [14],0.88
same,"Cor. heart dis. death, HR",[1]; [14],0.70
same,"Fatal bleeding, HR",[1]; [14],0.57
same,"Intracranial bleeding, HR",[1]; [14],1.81
same,"Myocardial infarction, HR",[1]; [14],0.85
same,"Stroke, HR",[1]; [14],0.91
same,"TIMI Major Bleeding, HR",[1]; [14],2.89
same,"TIMI Major or Minor Bleeding, HR",[1]; [14],3.11
same,"All-cause mortality, (%)",[1]; [15],(4.3) %
same,"Cor. heart dis. death, (%)",[1]; [15],(1.4) %
same,"Fatal bleeding, (%)",[1]; [15],(0.2) %
same,"Intracranial bleeding, (%)",[1]; [15],(0.5) %
same,"Myocardial infarction, (%)",[1]; [15],(4.4) %
same,"Stroke, (%)",[1]; [15],(1.7) %
same,"TIMI Major Bleeding, (%)",[1]; [15],(2.7) %
same,"TIMI Major or Minor Bleeding, (%)",[1]; [15],(3.8) %
same,"HR for cardiovascular death, myocardial infarction, or stroke vs. placebo","[1]; doses pooled, withdrawal ≤30 days, beyond 90 days",0.76
same,"HR for cardiovascular death, myocardial infarction, or stroke vs. placebo","[1]; doses pooled, withdrawal ≤30 days, first 90 days after randomization",0.54
same,reduction in the risk of developing a subsequent atherothrombotic event,[1]; more than one year after withdrawal of previous dual antiplatelet therapy,did not experience a reduction
same,"HR for cardiovascular death, myocardial infarction, or stroke vs. placebo","[1]; pooled doses, time from last P2Y12 inhibitor 31-360 days",0.86
same,"HR for cardiovascular death, myocardial infarction, or stroke vs. placebo","[1]; pooled doses, time from last P2Y12 inhibitor >360 days",1.01
same,"HR for cardiovascular death, myocardial infarction, or stroke vs. placebo","[1]; pooled doses, time from last P2Y12 inhibitor ≤30 days",0.73
same,HR for cardiovascular death vs. placebo,[1]; [16],0.78
same,HR for myocardial infarction vs. placebo,[1]; [16],0.72
same,HR for stroke vs. placebo,[1]; [16],0.64
same,"HR for cardiovascular death, myocardial infarction, or stroke vs. placebo","[1]; pooled doses, ≤30 days of stopping, qualifying MI <2 years prior to randomization",0.73
same,"HR for cardiovascular death, myocardial infarction, or stroke vs. placebo","[1]; pooled doses, ≤30 days of stopping, qualifying MI ≥2 years prior to randomization",0.71
same,"All-cause mortality, HR",[1]; [17],0.80
same,"Cor. heart dis. death, HR",[1]; [17],0.78
same,"Fatal bleeding, HR",[1]; [17],2.15
same,"Intracranial bleeding, HR",[1]; [17],1.53
same,"Myocardial infarction, HR",[1]; [17],0.78
same,"Stroke, HR",[1]; [17],0.64
same,"TIMI Major Bleeding, HR",[1]; [17],3.3
same,"TIMI Major or Minor Bleeding, HR",[1]; [17],3.43
same,"All-cause mortality, (%)",[1]; [18],(4.3) %
same,"Cor. heart dis. death, (%)",[1]; [18],(1.5) %
same,"Fatal bleeding, (%)",[1]; [18],(0.4) %
same,"Intracranial bleeding, (%)",[1]; [18],(0.8) %
same,"Myocardial infarction, (%)",[1]; [18],(5.2) %
same,"Stroke, (%)",[1]; [18],(1.5) %
same,"TIMI Major Bleeding, (%)",[1]; [18],(2.6) %
same,"TIMI Major or Minor Bleeding, (%)",[1]; [18],(4.1) %
same,"All-cause mortality, HR",[1]; [19],1.02
same,"Cor. heart dis. death, HR",[1]; [19],0.67
same,"Fatal bleeding, HR",[1]; [19],2.25
same,"Intracranial bleeding, HR",[1]; [19],2.07
same,"Myocardial infarction, HR",[1]; [19],0.67
same,"Stroke, HR",[1]; [19],0.64
same,"TIMI Major Bleeding, HR",[1]; [19],3.44
same,"TIMI Major or Minor Bleeding, HR",[1]; [19],3.57
same,"All-cause mortality, (%)",[1]; [20],(5.1) %
same,"Cor. heart dis. death, (%)",[1]; [20],(1.1) %
same,"Fatal bleeding, (%)",[1]; [20],(0.2) %
same,"Intracranial bleeding, (%)",[1]; [20],(0.7) %
same,"Myocardial infarction, (%)",[1]; [20],(4.6) %
same,"Stroke, (%)",[1]; [20],(1.3) %
same,"TIMI Major Bleeding, (%)",[1]; [20],(2.4) %
same,"TIMI Major or Minor Bleeding, (%)",[1]; [20],(3.8) %
same,"All-cause mortality, HR",[1]; [21],0.91
same,"Cor. heart dis. death, HR",[1]; [21],0.72
same,"Fatal bleeding, HR",[1]; [21],2.2
same,"Intracranial bleeding, HR",[1]; [21],1.79
same,"Myocardial infarction, HR",[1]; [21],0.72
same,"Stroke, HR",[1]; [21],0.64
same,"TIMI Major Bleeding, HR",[1]; [21],3.36
same,"TIMI Major or Minor Bleeding, HR",[1]; [21],3.50
same,"All-cause mortality, (%)",[1]; [22],(4.7) %
same,"Cor. heart dis. death, (%)",[1]; [22],(1.3) %
same,"Fatal bleeding, (%)",[1]; [22],(0.3) %
same,"Intracranial bleeding, (%)",[1]; [22],(0.7) %
same,"Myocardial infarction, (%)",[1]; [22],(4.9) %
same,"Stroke, (%)",[1]; [22],(1.4) %
same,"TIMI Major Bleeding, (%)",[1]; [22],(2.5) %
same,"TIMI Major or Minor Bleeding, (%)",[1]; [22],(4.0%
same,serum thromboxane B2 levels vs placebo group,thromboxane B2,no differences
